# Test results: patent publication US11028127B2, “Peptides capable of reactivating p53 mutants” (Yeda Research and Development Co. Ltd., priority 2013, dated 2021)
# Tested on: Mut-p53
# Experiment: Total activity score over combined assays (Table 8)
# Set-up: scale not given here
# Conditions: for Activity Score: Table 10 summary of activity of the peptides tested; for AS (Activity Score): total score of Table 7
# Description: Several alternative and complementary methods to screen lead peptide candidates for conformational and functional effects on Mut-p53 were employed. For increased penetration of peptide across cell membranes each peptide contains 3-6 Arginine residues either as part of its sequence or added either at its N-terminus or its C-terminus. […] In-vitro based assays for evaluation were first performed, such as ELISA for assessment of p53 conformation and sequence-specific DNA binding of p53.
Substance,Activity Score,AS (Activity Score)
pCAP47 (TLYLPHWHRH),14,14
pCAP48 (IPMNFTSHSLRQ),13,13
pCAP49 (TRILCIVMM),8,8
pCAP50 (WSEYDIPTPQIPP),0,0
pCAP51 (AILTLILRRVIWP),4,4
pCAP52 (SPYPIRT),3,3
pCAP53 (ILVIIQRIM),3,3
pCAP54 (IRGRIIR),26,26
pCAP55 (FLLPEPDENTRW),8,8
pCAP56 (ATPFHQT),5,5
pCAP57 (LMSNAQY),8,8
pCAP58 (SILPLFLIRRSG),5,5
pCAP59 (FLIRRSG),9,9
pCAP60 (SFILFIRRGRLG),40,40
pCAP61 (KDLPFYSHLSRQ),17,17
pCAP62 (YELPHHAYPA),10,10
pCAP63 (HNHHHSQHTPQH),9,9
pCAP64 (APSIFTPHAWRQ),2,2
pCAP65 (THFSHHLKHRRRRRRRRRR),17,17
pCAP66 (THFSHHLKGGGRRQRRRP),2,2
pCAP67 (LHSKTLVLGGGRRRRGDR),2,2
pCAP68 (YRRLLIGMMWRRRRRRRRRRR),39,39
pCAP69 (SILTLSRRRRRRRRRR),0,0
pCAP70 (SILTLSRGRKKRRQRRRR),33,33
pCAP71 (WTLSNYLGGRKKRRQRRRR),2,2
pCAP72 (SCRCRLRRRRRRRRRR),5,5
pCAP73 (SCRCRLRGDRGDR),0,0

Substance,Activity Score,AS (Activity Score)
pCAP74 (IRGRIIRRKKRRQRRRRGDR),6,6
pCAP75 (TRILCIVRKKRRQRRRRGDR),32,32
pCAP76 (GGGGGGGGGRRRRRRR),0,0
pCAP77 (SEYLCSSLDAAG),0,0
pCAP78 (GESFVQHVFRQN),0,0
pCAP79 (SVHHHHRMHLVA),0,0
pCAP80 (HLHKHHYKDSRM),9,9
pCAP81 (VRCIFRGIWVRL),2,2
pCAP82 (QIPHRSSTALQL),6,6
pCAP83 (HSSHHHPVHSWN),25,25
pCAP84 (GRRRFCM),0,0
pCAP85 (KLTIHHH),0,0
pCAP86 (FGSHHEL),0,0
pCAP87 (HANLHHT),37,37
pCAP88 (SYQTMQP),6,6
pCAP89 (SILTLSCRCRLRLWR),8,8
pCAP90 (SCRCRLR),12,12
pCAP91 (STTHIHA),7,7
pCAP92 (FPHLVSSLTT),7,7
pCAP93 (ATQHHYIK),17,17
pCAP94 (LRFIDYP),4,4
pCAP95 (HQIHRNHTY),8,8
pCAP96 (GTVDHHA),0,0
pCAP97 (WNHHHSTPHPAH),47,47
pCAP98 (HSSGHNFVLVRQ),2,2
pCAP99 (GLHLFTTDRQGW),7,7
pCAP100 (FPGHTIH),19,19

Substance,Activity Score,AS (Activity Score)
pCAP101 (IRFILIR),3,3
pCAP102 (SSVHHRG),3,3
pCAP103 (LRRQLQL),3,3
pCAP104 (LLRLGLI),21,21
pCAP105 (SRIVLGW),5,5
pCAP106 (LIRRCSLQR),8,8
pCAP107 (DRLSVFLFIM),0,0
pCAP108 (IIRGNFLIGGRL),17,17
pCAP109 (GPIKHHLQHH),4,4
pCAP110 (LFILVFR),2,2
pCAP111 (SNIHHQV),5,5
pCAP112 (TTSHHPK),2,2
pCAP113 (HTTAHTH),3,3
pCAP114 (AISHHTR),0,0
pCAP115 (HPHNHTVHNVVY),3,3
pCAP116 (KHHPFDHRLGNQ),0,0
pCAP117 (DHSKFVPLFVRQ),3,3
pCAP118 (SNHHHRHHTNTH),13,13
pCAP119 (HSAHHTM),0,0
pCAP120 (SIRTLGRFLIIRV),3,3
pCAP121 (LTLMRLRIIG),5,5
pCAP122 (HSYSPYYTFRQH),5,5
pCAP123 (GLCRIIL),3,3
pCAP124 (VMVLFRILRGSM),2,2
pCAP125 (ELGLHRH),0,0
pCAP126 (RRLRICV),0,0
pCAP127 (SPPIRHH),3,3

Substance,Activity Score,AS (Activity Score)
pCAP128 (CILRLWW),19,19
pCAP130 (EVTFRHSVVRRRRRRRRRRR),13,13
pCAP131 (LPNPPERHHRRRRRRRRRRR),18,18
pCAP132 (NHPWQFPNRWTRRRRRR),7,7
pCAP133 (SLLIGFGIIRSRRRRRRRR),10,10
pCAP134 (IRILMFLIGCGRRRRRRRR),40,40
pCAP135 (HTDSHPHHHHPHRRRRR),10,10
pCAP136 (SILTLRLRRLRRRRRRRR),14,14
pCAP137 (GAMHLPWHMGTRRRRRR),8,8
pCAP138 (YPTQGHLRRRRRRRRRRRR),11,11
pCAP139 (MHPPDWYHHTPKRRRRRR),12,12
pCAP140 (TDSHSHHRRRRRRRRRRR),6,6
pCAP141 (SWQALALYAAGWRRRRRR),29,29
pCAP142 (TLYLPHWHRHRRRRRRRRRR),14,14
pCAP143 (IPMNFTSHSLRQRRRRRRRRR),6,6
pCAP144 (SFILFIRRGRLGRRRRRRRRR),49,49
pCAP145 (HSSHHHPVHSWNRRRRRRR),7,7
pCAP146 (HANLHHTRRRRRRRRRRR),11,11
pCAP147 (ATQHHYIKRRRRRRRRRRR),10,10
pCAP148 (WNHHHSTPHPRRRRRRRRRR),43,43
pCAP149 (FPGHTIHRRRRRRRRRRR),13,13
pCAP150 (IIRGNFLIGGRLRRRRRRRRR),26,26
pCAP151 (CILRLWWRRRRRRRRRRR),33,33
pCAP152 (YRRLLIGMRRRRRRRRRRRR),11,11
